From patent publication US8980874B2, “Method and composition for treating diabetic ketoacidosis” (Midwestern University, priority 2009, dated 2015)
“Also recorded” adds a separate entry of the source. Structures can show the parent of a compound that is named as a salt. Non-standard residues stand in square brackets, D forms with d. Residues, ends and D or L forms follow the SMILES beside them.

How the values were obtained:
rat model of DKA [1] = assay: Brain and lung water content in diabetic ketoacidosis rats; format: in vivo; settings: end of treatment; for effect on lung water content (pulmonary edema): FIG. 7, result in words; for effect on brain water content (cerebral edema): FIG. 8, result in words
Procedure: Water content in the lung and brain was determined to assess brain and pulmonary edema. Assessment of brain and lung water content was carried out as follows. At the end of treatment the animal was sacrificed and trachea was immediately tied, then the lungs were dissected out. The skull was opened and brain dissected out. Brain and lungs were rinsed with saline, and weighed (wet weight). The brain and lungs were kept for drying in an oven at a temperature of 60° C. for 72 hours, then weighed again (dry weight). The percent water content was calculated using the formula: [(wet weight−dry weight)/wet weight×100].
(§1) Group 4: Diabetic saline/insulin treated (D-Saline+insulin treated): Rats were injected with streptozotocin in citrate buffer (150 mg/kg ip) to induce diabetes and ketoacidosis. On day three, rats were treated with 1.5 U/kg regular insulin (Humulin® R (Regular human insulin, rDNA origin). On day four, saline and insulin treatment was carried out. Rats were infused via cannulated femoral vein saline, 0.9% NaCl at 80 mL/kg/hr and 1.5 U/kg/hr regular insulin for one hour. During the next two through four hours, rats were infused with saline, 0.9% NaCl at 40 mL/kg/hr and 1.5 U/kg/hr regular insulin (Yuen et al., 2008).
(§2) Group 5: Diabetic BMS-182874/saline/insulin treated (D-BMS+Saline+insulin treated): Rats were injected with streptozotocin in citrate buffer (150 mg/kg ip) to induce diabetes and ketoacidosis. On day three, rats were treated with 1.5 U/kg regular insulin. On day four, rats were administered a bolus dose of selective ETA receptor antagonist, BMS-182874 (9 mg/kg), then saline and insulin treatment was carried out. Rats were infused via cannulated femoral vein saline, 0.9% NaCl at 80 mL/kg/hr and 1.5 U/kg/hr regular insulin for one hour. During the next two through four hours rats were infused with saline, 0.9% NaCl at 40 mL/kg/hr and 1.5 U/kg/hr regular insulin.
(§3) Group 6: Diabetic BQ123/saline/insulin treated (D-BQ+saline+insulin treated): Same as above for Group 5, except BQ123 (1 mg/kg body weight) is used as a substitute for BMS-182874 (9 mg/kg).
(§4) Data are presented as mean±SEM. The significance of differences was estimated by one-way analysis of variance (intra group comparison with respect to base line data) and two-way analysis of variance (inter group comparison with respect to corresponding time points from each groups) followed by application of the Dunnett's Multiple Comparisons and Bonferroni test respectively. A P value of less than 0.05 was considered to be significant. The statistical analysis was processed with GraphPad Prism software Version 5.00.

rat model of DKA [2] = assay: Blood ketone levels in diabetic ketoacidosis rats; format: in vivo; settings: for blood ketone levels, Day (pre tx): baseline before treatment; for blood ketone levels, Day (pre tx) / blood ketone levels, Day 4 (end of tx): mean±SEM; for effect of treatment on blood ketones: day 4, result in words (Table 2, FIG. 2); for blood ketone levels, Day 4 (end of tx): saline+insulin, alone or after bolus BMS-182874 9 mg/kg or BQ123 1 mg/kg
Procedure: (§5) Normotensive Sprague Dawley rats were kept on fasting for 2 hours with unlimited access to water. After 2 hours of fasting, rats were injected intraperitoneally with 150 mg/kg of streptozotocin in 0.05 mol/L citric acid, pH 4.3 to induced diabetes (Lam et al., 2005; Yuen et al., 2008), while non-diabetic control rats received an intraperitoneal injection of 0.05 mol/L citrate buffer (Lam et al., 2005; Yuen et al., 2008). Rats were allowed unlimited access to tap water and food. Each day rats were weighed and urine ketone levels were estimated by Urine Reagent Strips, 1K Parameter. Prior to streptozotocin or citrate buffer injection, baseline blood glucose levels were assessed by One Touch Ultra blood glucose strips from Lifescan, Milpitas, Calif., and baseline blood ketone levels were estimated using Cardiochek blood ketone analyzer. Blood glucose and ketone were measured again on day three and four to ensure the onset of hyperglycemia and ketoacidosis. […] Blood samples were withdrawn from the femoral […] for baseline reading prior to start of treatment, after the first hour of treatment, and then at the end of the treatment (fifth hour of experiment).
(§6) The animals were allowed to stabilize for at least 20 minutes following surgical procedures. Body weight, blood glucose, urinary ketone, blood ketone, arterial blood gases, blood electrolytes, mean arterial pressure, pulse pressure, heart rate, brain blood perfusion, brain and lung water content were determined in the following groups
as §1, §2, §3, §4

rat model of DKA [3] = assay: Blood glucose in streptozotocin-induced diabetic ketoacidosis rats; format: in vivo; settings: for blood glucose, Day 4 (pre-tx): baseline before treatment on day 4, mean±SEM; for effect of treatment on blood glucose: day 4, result in words; for blood glucose, Day 4 (end of tx) / blood glucose, Day 4 (1 hour of tx): saline+insulin infusion, alone or after bolus BMS-182874 9 mg/kg or BQ123 1 mg/kg, mean±SEM; for blood glucose, Day 4 (end of tx): fifth hour
Procedure: as §5, §6, §1, §2, §3, §4

[4] = test system: rats induced with neurogenic pulmonary edema; settings: cited from earlier work
[5] = test system: intrathecal (IT) injection of ET-1 into rats; settings: pre-treatment, intrathecal ET-1 in rats; cited from earlier work

| Compound | effect on lung water content (pulmonary edema) (rat model of DKA [1]) | effect on brain water content (cerebral edema) (rat model of DKA [1]) | blood ketone levels, Day (pre tx) (rat model of DKA [2]) | effect of treatment on blood ketones (rat model of DKA [2]; hydrochloride) | effect of treatment on blood ketones (rat model of DKA [2]; listed as BMS, hydrochloride) | blood ketone levels, Day 4 (end of tx) (rat model of DKA [2]) | blood glucose, Day 4 (pre-tx) (rat model of DKA [3]) | effect of treatment on blood glucose (rat model of DKA [3]) | blood glucose, Day 4 (end of tx) (rat model of DKA [3]) | blood glucose, Day 4 (1 hour of tx) (rat model of DKA [3]) | effect on hypoxia and hypercapnea [4] | effect of treatment on blood ketones (rat model of DKA [2]) | effect on pulmonary edema [5] | reduction of mortality rate [5] |
| --- | --- | --- | --- | --- | --- | --- | --- | --- | --- | --- | --- | --- | --- | --- |
| Cc1noc(NS(=O)(=O)c2cccc3c(N(C)C)cccc23)c1C [BMS-182874, (5-Dimethylamino)-N-(3,4-dimethyl-5-isoxazolyl)-1-naphthalene sulfonamide hydrochloride] | restored lung water content | restored brain water content | 31.01 ± 2.29 mg/dL | did not significantly affect blood ketones | produced a significant decrease in blood ketones | 14.65 ± 2.70 mg/dL | 522 ± 18 mg/dL | did not significantly affect blood glucose | 263 ± 32 mg/dL | 446 ± 36 mg/dL |  |  |  |  |
| CC(C)C[C@@H]1NC(=O)[C@@H](C(C)C)NC(=O)[C@@H]2CCCN2C(=O)[C@@H](CC(=O)O)NC(=O)[C@@H](Cc2c[nH]c3ccccc23)NC1=O [BQ123, Cyclo(D-Trp-D-Asp-Pro-D-Val-Leu)] (cyclo(L[dW][dD]P[dV])) | restored lung water content | restored brain water content | 28.22 ± 3.14 mg/dL |  |  | 5.2 ± 0.36 mg/dL | 484 ± 17 mg/dL | did not significantly affect blood glucose | 312 ± 55 mg/dL | 462 ± 55 mg/dL | ameliorated | particularly marked decrease in blood ketones; also recorded: significantly decrease the blood ketones | prevented pulmonary edema | 50% |
| Insulin: Humulin® R (Regular human insulin, rDNA origin), infused with saline | restored lung water content | restored brain water content | 31.925 ± 5.28 mg/dL |  |  | 12.8 ± 4.04 mg/dL | 530 ± 20 mg/dL | produced a significant decrease in blood glucose | 200 ± 20 mg/dL | 444 ± 26 mg/dL |  | produced a significant decrease in blood ketones |  |  |
